Experimental data reported in paper PMC10905675, “INX-315, a Selective CDK2 Inhibitor, Induces Cell Cycle Arrest and Senescence in Solid Tumors” (Cancer Discovery, 2023).

Key:
Assay type in all cases: biochemical
[1] = tested on: CDK3/cyclin E1, CDK5 (inactive), CDK5/p25, CDK5/p35, CSF1R, MAPK15/ERK7, NTRK/TRKC, TYK2; experiment: SelectScreen primary screen; details: 100 nmol/L INX-315
From the text: (§1) INX-315 was first evaluated in the SelectScreen Biochemical Kinase Profiling at Thermo Fisher Scientific (Madison, WI). The primary screen consisted of INX-315 dosed at a single concentration of 100 nmol/L in 1% DMSO across each platform within the SelectScreen array of assays, LanthaScreen Eu Kinase Binding Assay; AdaptaScreen; and Z'LyteScreen using preestablished conditions at Thermo Fisher Scientific as shown in Supplementary Table S2. […] The follow-up screen consisted of 10-point dose–response curves for INX-315 from 1 µmol/L to 0.0495 nmol/L.

CDK2/cyclin A/A1/E1/O = experiment: SelectScreen primary screen; details: 100 nmol/L INX-315
From the text: as §1

PTK2B (FAK2) = target: T1, PTK2B (FAK2) (Homo sapiens, UniProt Q14289); experiment: SelectScreen ZLYTE; details: INX-0315 at 100nM
T1 construct: purchased Thermo Fisher Scientific SelectScreen (plus Nanosyn / Reaction Biology for CDK/cyclin lines)
From the text: as §1

GSK3B (GSK3 beta) = target: T2, GSK3B (GSK3 beta) (Homo sapiens, UniProt P49841); experiment: SelectScreen ZLYTE; details: INX-0315 at 100nM
T2 construct: purchased Thermo Fisher Scientific SelectScreen (plus Nanosyn / Reaction Biology for CDK/cyclin lines)
From the text: as §1

NEK1 = target: T3, NEK1 (Homo sapiens, UniProt Q96PY6); experiment: SelectScreen ZLYTE; details: INX-0315 at 100nM
T3 construct: purchased Thermo Fisher Scientific SelectScreen (plus Nanosyn / Reaction Biology for CDK/cyclin lines)
From the text: as §1

RET A883F = target: T4, RET A883F (Homo sapiens, UniProt P07949, A883F); experiment: SelectScreen ZLYTE; details: INX-0315 at 100nM
T4 construct: purchased Thermo Fisher Scientific SelectScreen (plus Nanosyn / Reaction Biology for CDK/cyclin lines)
From the text: as §1

NIM1K = target: T5, NIM1K (Homo sapiens, UniProt Q8IY84); experiment: SelectScreen ZLYTE; details: INX-0315 at 100nM
T5 construct: purchased Thermo Fisher Scientific SelectScreen (plus Nanosyn / Reaction Biology for CDK/cyclin lines)
From the text: as §1

PDGFRA D842V = target: T6, PDGFRA D842V (Homo sapiens, UniProt P16234, D842V); experiment: SelectScreen ZLYTE; details: INX-0315 at 100nM
T6 construct: purchased Thermo Fisher Scientific SelectScreen (plus Nanosyn / Reaction Biology for CDK/cyclin lines)
From the text: as §1

FGFR2 = target: T7, FGFR2 (Homo sapiens, UniProt P21802); experiment: SelectScreen ZLYTE; details: INX-0315 at 100nM
T7 construct: purchased Thermo Fisher Scientific SelectScreen (plus Nanosyn / Reaction Biology for CDK/cyclin lines)
From the text: as §1

LYN A = target: T8, LYN A (Homo sapiens, UniProt P07948); experiment: SelectScreen ZLYTE; details: INX-0315 at 100nM
T8 construct: purchased Thermo Fisher Scientific SelectScreen (plus Nanosyn / Reaction Biology for CDK/cyclin lines)
From the text: as §1

MINK1 = target: T9, MINK1 (Homo sapiens, UniProt Q8N4C8); experiment: SelectScreen ZLYTE; details: INX-0315 at 100nM
T9 construct: purchased Thermo Fisher Scientific SelectScreen (plus Nanosyn / Reaction Biology for CDK/cyclin lines)
From the text: as §1

SRC N1 = target: T10, SRC N1 (Homo sapiens, UniProt P12931); experiment: SelectScreen ZLYTE; details: INX-0315 at 100nM
T10 construct: purchased Thermo Fisher Scientific SelectScreen (plus Nanosyn / Reaction Biology for CDK/cyclin lines)
From the text: as §1

PRKCB2 (PKC beta II) = target: T11, PRKCB2 (PKC beta II) (Homo sapiens, UniProt P05771); experiment: SelectScreen ZLYTE; details: INX-0315 at 100nM
T11 construct: purchased Thermo Fisher Scientific SelectScreen (plus Nanosyn / Reaction Biology for CDK/cyclin lines)
From the text: as §1

SRPK1 = target: T12, SRPK1 (Homo sapiens, UniProt Q96SB4); experiment: SelectScreen ZLYTE; details: INX-0315 at 100nM
T12 construct: purchased Thermo Fisher Scientific SelectScreen (plus Nanosyn / Reaction Biology for CDK/cyclin lines)
T12 sequence (Q96SB4 whole entry): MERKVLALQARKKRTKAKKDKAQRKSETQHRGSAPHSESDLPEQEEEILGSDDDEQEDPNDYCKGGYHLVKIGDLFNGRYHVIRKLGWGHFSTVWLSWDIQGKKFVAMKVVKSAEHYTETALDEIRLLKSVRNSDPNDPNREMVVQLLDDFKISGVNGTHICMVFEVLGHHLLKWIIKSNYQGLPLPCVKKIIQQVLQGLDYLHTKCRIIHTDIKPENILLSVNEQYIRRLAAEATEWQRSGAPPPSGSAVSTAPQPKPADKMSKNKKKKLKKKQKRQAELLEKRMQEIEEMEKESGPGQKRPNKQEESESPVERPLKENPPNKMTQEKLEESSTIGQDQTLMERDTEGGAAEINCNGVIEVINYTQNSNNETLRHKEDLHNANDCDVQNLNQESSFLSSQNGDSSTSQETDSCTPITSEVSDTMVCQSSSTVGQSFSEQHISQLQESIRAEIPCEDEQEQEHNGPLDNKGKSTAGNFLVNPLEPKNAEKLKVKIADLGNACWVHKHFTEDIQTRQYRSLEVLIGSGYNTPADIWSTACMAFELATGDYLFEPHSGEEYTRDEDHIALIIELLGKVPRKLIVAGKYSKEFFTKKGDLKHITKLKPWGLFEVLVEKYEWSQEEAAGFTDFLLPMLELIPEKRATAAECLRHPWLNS
From the text: as §1

FER = target: T13, FER (Homo sapiens, UniProt P16591); experiment: SelectScreen ZLYTE; details: INX-0315 at 100nM
T13 construct: purchased Thermo Fisher Scientific SelectScreen (plus Nanosyn / Reaction Biology for CDK/cyclin lines)
From the text: as §1

FGFR1 = target: T14, FGFR1 (Homo sapiens, UniProt P11362); experiment: SelectScreen ZLYTE; details: INX-0315 at 100nM
T14 construct: purchased Thermo Fisher Scientific SelectScreen (plus Nanosyn / Reaction Biology for CDK/cyclin lines)
From the text: as §1

ROCK1 = target: T15, ROCK1 (Homo sapiens, UniProt Q13464); experiment: SelectScreen ZLYTE; details: INX-0315 at 100nM
T15 construct: purchased Thermo Fisher Scientific SelectScreen (plus Nanosyn / Reaction Biology for CDK/cyclin lines)
From the text: as §1

CSNK2A2 (CK2 alpha 2) = target: T16, CSNK2A2 (CK2 alpha 2) (Homo sapiens, UniProt P19784); experiment: SelectScreen ZLYTE; details: INX-0315 at 100nM
T16 construct: purchased Thermo Fisher Scientific SelectScreen (plus Nanosyn / Reaction Biology for CDK/cyclin lines)
From the text: as §1

CSNK1A1L = target: T17, CSNK1A1L (Homo sapiens, UniProt Q8N752); experiment: SelectScreen ZLYTE; details: INX-0315 at 100nM
T17 construct: purchased Thermo Fisher Scientific SelectScreen (plus Nanosyn / Reaction Biology for CDK/cyclin lines)
From the text: as §1

PDK1 = target: T18, PDK1 (Homo sapiens, UniProt O15530); experiment: SelectScreen ZLYTE; details: INX-0315 at 100nM
T18 construct: purchased Thermo Fisher Scientific SelectScreen (plus Nanosyn / Reaction Biology for CDK/cyclin lines)
From the text: as §1

KIT T670I = target: T19, KIT T670I (Homo sapiens, UniProt P10721, T670I); experiment: SelectScreen ZLYTE; details: INX-0315 at 100nM
T19 construct: purchased Thermo Fisher Scientific SelectScreen (plus Nanosyn / Reaction Biology for CDK/cyclin lines)
From the text: as §1

TXK = target: T20, TXK (Homo sapiens, UniProt P42681); experiment: SelectScreen ZLYTE; details: INX-0315 at 100nM
T20 construct: purchased Thermo Fisher Scientific SelectScreen (plus Nanosyn / Reaction Biology for CDK/cyclin lines)
T20 sequence (P42681 whole entry): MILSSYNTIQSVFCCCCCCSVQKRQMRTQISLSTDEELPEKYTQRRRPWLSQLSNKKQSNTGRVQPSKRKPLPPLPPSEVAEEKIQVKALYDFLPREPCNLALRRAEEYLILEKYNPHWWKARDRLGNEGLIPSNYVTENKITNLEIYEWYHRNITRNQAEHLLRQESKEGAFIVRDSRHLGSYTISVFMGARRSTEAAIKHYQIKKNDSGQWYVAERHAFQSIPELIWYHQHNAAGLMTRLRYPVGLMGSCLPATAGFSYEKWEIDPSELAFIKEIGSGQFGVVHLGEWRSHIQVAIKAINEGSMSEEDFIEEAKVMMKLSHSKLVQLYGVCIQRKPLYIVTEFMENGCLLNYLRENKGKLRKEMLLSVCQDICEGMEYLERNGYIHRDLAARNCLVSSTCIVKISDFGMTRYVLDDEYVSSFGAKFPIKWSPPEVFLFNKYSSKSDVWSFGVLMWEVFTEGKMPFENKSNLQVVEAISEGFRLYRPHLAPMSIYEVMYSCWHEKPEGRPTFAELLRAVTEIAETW
From the text: as §1

JAK2 = target: T21, JAK2 (Homo sapiens, UniProt O60674); experiment: SelectScreen ZLYTE; details: INX-0315 at 100nM
T21 construct: purchased Thermo Fisher Scientific SelectScreen (plus Nanosyn / Reaction Biology for CDK/cyclin lines)
From the text: as §1

JAK2 JH1 JH2 V617F = target: T22, JAK2 JH1 JH2 V617F (Homo sapiens, UniProt O60674, V617F); experiment: SelectScreen ZLYTE; details: INX-0315 at 100nM
T22 construct: JAK2 JH1 JH2 V617F; purchased Thermo Fisher Scientific SelectScreen (plus Nanosyn / Reaction Biology for CDK/cyclin lines)
From the text: as §1

MARK4 = target: T23, MARK4 (Homo sapiens, UniProt Q96L34); experiment: SelectScreen ZLYTE; details: INX-0315 at 100nM
T23 construct: purchased Thermo Fisher Scientific SelectScreen (plus Nanosyn / Reaction Biology for CDK/cyclin lines)
T23 sequence (Q96L34 whole entry): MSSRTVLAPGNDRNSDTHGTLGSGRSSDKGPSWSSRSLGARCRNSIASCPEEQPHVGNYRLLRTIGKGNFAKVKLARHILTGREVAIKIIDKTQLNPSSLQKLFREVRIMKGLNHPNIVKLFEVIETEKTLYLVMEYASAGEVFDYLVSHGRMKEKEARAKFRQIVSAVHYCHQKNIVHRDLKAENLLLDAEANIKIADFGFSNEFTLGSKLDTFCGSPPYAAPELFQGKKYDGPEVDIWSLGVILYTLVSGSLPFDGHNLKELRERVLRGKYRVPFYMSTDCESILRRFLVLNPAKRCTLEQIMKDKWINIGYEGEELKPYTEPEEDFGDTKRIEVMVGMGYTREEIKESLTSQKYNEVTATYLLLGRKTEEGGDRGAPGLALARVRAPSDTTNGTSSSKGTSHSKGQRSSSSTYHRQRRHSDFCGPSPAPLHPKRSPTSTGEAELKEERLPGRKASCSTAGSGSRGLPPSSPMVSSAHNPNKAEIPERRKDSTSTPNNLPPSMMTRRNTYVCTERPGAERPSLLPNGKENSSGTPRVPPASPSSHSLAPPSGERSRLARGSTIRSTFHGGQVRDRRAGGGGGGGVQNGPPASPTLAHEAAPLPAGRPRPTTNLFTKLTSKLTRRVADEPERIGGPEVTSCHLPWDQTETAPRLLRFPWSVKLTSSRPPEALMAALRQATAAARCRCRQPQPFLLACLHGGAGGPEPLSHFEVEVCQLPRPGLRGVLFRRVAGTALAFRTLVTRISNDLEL
From the text: as §1

CDC42 BPG (MRCKG) = target: T24, CDC42 BPG (MRCKG) (Homo sapiens, UniProt Q6DT37); experiment: SelectScreen ZLYTE; details: INX-0315 at 100nM
T24 construct: purchased Thermo Fisher Scientific SelectScreen (plus Nanosyn / Reaction Biology for CDK/cyclin lines)
From the text: as §1

EPHB2 = target: T25, EPHB2 (Homo sapiens, UniProt P29323); experiment: SelectScreen ZLYTE; details: INX-0315 at 100nM
T25 construct: purchased Thermo Fisher Scientific SelectScreen (plus Nanosyn / Reaction Biology for CDK/cyclin lines)
From the text: as §1

EPHB1 = target: T26, EPHB1 (Homo sapiens, UniProt P54762); experiment: SelectScreen ZLYTE; details: INX-0315 at 100nM
T26 construct: purchased Thermo Fisher Scientific SelectScreen (plus Nanosyn / Reaction Biology for CDK/cyclin lines)
T26 sequence (P54762 18-984): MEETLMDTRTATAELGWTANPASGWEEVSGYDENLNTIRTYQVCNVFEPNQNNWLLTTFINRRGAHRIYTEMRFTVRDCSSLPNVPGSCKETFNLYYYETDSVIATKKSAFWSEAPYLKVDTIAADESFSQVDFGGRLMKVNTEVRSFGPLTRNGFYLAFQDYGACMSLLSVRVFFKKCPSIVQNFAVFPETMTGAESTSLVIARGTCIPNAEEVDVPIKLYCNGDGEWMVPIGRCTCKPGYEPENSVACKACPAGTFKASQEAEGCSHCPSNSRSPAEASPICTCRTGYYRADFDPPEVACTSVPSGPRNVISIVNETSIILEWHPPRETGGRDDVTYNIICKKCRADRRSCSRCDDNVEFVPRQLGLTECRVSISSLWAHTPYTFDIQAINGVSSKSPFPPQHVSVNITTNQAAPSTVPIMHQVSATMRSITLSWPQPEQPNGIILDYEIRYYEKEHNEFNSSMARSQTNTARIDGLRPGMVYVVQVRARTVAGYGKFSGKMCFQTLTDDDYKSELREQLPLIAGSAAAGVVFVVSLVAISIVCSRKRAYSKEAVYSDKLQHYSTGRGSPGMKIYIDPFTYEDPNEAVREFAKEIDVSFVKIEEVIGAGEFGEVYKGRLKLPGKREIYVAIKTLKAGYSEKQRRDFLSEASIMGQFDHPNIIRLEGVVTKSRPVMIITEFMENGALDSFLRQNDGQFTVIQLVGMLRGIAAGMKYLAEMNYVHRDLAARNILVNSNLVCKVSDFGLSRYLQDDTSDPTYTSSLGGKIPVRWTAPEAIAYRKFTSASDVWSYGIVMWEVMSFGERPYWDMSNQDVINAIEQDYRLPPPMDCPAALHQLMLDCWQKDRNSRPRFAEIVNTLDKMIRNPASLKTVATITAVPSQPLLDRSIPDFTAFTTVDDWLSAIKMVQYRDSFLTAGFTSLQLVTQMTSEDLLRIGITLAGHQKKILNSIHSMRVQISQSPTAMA
From the text: as §1

PRKCG (PKC gamma) = target: T27, PRKCG (PKC gamma) (Homo sapiens, UniProt P05129); experiment: SelectScreen ZLYTE; details: INX-0315 at 100nM
T27 construct: purchased Thermo Fisher Scientific SelectScreen (plus Nanosyn / Reaction Biology for CDK/cyclin lines)
From the text: as §1

HIPK4 = target: T28, HIPK4 (Homo sapiens, UniProt Q8NE63); experiment: SelectScreen ZLYTE; details: INX-0315 at 100nM
T28 construct: purchased Thermo Fisher Scientific SelectScreen (plus Nanosyn / Reaction Biology for CDK/cyclin lines)
From the text: as §1

DAPK3 (ZIPK) = target: T29, DAPK3 (ZIPK) (Homo sapiens, UniProt O43293); experiment: SelectScreen ZLYTE; details: INX-0315 at 100nM
T29 construct: purchased Thermo Fisher Scientific SelectScreen (plus Nanosyn / Reaction Biology for CDK/cyclin lines)
T29 sequence (O43293 whole entry): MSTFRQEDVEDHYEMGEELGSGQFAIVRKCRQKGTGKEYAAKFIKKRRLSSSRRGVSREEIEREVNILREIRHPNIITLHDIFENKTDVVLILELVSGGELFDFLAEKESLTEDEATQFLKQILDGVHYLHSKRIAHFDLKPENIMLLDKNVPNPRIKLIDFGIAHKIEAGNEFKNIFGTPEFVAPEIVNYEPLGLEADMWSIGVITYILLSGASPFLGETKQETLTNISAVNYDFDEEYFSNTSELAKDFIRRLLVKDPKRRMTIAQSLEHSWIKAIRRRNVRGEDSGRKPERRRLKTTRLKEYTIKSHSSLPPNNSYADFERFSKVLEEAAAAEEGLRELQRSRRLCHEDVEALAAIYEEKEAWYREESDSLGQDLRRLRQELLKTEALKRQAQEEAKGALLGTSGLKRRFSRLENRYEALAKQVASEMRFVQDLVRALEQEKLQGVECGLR
From the text: as §1

CSNK2A1 (CK2 alpha 1) = target: T30, CSNK2A1 (CK2 alpha 1) (Homo sapiens, UniProt P68400); experiment: SelectScreen ZLYTE; details: INX-0315 at 100nM
T30 construct: purchased Thermo Fisher Scientific SelectScreen (plus Nanosyn / Reaction Biology for CDK/cyclin lines)
T30 sequence (P68400 whole entry): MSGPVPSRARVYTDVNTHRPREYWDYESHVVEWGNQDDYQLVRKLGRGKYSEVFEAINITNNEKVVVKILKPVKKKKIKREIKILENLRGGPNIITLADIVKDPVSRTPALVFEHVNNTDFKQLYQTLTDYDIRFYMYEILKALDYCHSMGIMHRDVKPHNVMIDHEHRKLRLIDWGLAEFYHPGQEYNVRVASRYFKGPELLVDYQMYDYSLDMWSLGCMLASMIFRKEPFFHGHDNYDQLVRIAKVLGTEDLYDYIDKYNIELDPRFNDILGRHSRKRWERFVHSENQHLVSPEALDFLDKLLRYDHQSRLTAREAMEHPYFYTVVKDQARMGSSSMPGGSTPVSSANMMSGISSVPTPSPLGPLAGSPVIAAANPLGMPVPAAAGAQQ
From the text: as §1

AMPK A1/B1/G1 = target: T31, AMPK A1/B1/G1 (Homo sapiens, UniProt Q13131); experiment: SelectScreen ZLYTE; details: INX-0315 at 100nM
T31 construct: purchased Thermo Fisher Scientific SelectScreen (plus Nanosyn / Reaction Biology for CDK/cyclin lines)
T31 sequence (Q13131 whole entry): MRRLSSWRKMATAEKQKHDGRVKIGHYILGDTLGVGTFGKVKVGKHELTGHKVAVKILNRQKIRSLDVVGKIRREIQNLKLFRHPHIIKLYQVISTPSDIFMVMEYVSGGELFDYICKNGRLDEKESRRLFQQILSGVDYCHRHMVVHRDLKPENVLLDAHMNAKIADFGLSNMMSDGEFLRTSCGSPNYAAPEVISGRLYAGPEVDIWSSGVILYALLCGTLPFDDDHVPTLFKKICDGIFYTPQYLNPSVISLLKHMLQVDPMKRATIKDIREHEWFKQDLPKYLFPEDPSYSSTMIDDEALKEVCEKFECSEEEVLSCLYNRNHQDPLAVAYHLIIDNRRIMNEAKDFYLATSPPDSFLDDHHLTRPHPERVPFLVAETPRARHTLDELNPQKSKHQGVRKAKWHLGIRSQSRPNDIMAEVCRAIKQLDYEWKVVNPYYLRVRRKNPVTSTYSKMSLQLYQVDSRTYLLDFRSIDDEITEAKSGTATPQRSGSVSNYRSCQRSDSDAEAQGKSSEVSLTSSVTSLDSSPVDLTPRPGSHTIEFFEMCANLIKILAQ
T31 sequence (Q9Y478 whole entry partner): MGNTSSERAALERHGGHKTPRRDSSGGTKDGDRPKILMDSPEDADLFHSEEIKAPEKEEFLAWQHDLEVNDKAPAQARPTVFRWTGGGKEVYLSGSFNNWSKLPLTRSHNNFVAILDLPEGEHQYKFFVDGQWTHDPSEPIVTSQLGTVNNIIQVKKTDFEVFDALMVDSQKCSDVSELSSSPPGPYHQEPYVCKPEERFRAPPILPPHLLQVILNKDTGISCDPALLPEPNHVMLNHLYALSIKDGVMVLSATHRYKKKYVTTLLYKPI
T31 sequence (P54619 whole entry partner): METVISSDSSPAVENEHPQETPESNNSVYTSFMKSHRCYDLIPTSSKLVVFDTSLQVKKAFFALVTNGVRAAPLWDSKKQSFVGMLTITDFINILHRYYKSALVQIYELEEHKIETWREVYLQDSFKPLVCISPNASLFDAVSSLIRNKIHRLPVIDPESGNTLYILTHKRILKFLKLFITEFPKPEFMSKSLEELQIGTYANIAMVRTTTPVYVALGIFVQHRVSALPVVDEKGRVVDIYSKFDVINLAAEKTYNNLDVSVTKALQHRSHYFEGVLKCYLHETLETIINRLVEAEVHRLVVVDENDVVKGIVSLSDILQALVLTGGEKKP
From the text: as §1

PHKG2 = target: T32, PHKG2 (Homo sapiens, UniProt P15735); experiment: SelectScreen ZLYTE; details: INX-0315 at 100nM
T32 construct: purchased Thermo Fisher Scientific SelectScreen (plus Nanosyn / Reaction Biology for CDK/cyclin lines)
From the text: as §1

CDK18/cyclin Y = target: T33, CDK18/cyclin Y (Homo sapiens, UniProt Q07002); experiment: SelectScreen ZLYTE; details: INX-0315 at 100nM
T33 construct: purchased Thermo Fisher Scientific SelectScreen (plus Nanosyn / Reaction Biology for CDK/cyclin lines)
From the text: as §1

ERBB4 (HER4) = target: T34, ERBB4 (HER4) (Homo sapiens, UniProt Q15303); experiment: SelectScreen ZLYTE; details: INX-0315 at 100nM
T34 construct: purchased Thermo Fisher Scientific SelectScreen (plus Nanosyn / Reaction Biology for CDK/cyclin lines)
From the text: as §1

NS(=O)(=O)c1ccc(Nc2ncc3cc4n(c3n2)C2(CCCCC2)C(=O)NN4)cc1 [INX-315]
inhibition of CDK3/cyclin E1, CDK5 (inactive), CDK5/p25, CDK5/p35, CSF1R, MAPK15/ERK7, NTRK/TRKC, TYK2 [1]: ≥ 80% | inhibition of CDK2/cyclin A/A1/E1/O (CDK2/cyclin A/A1/E1/O): ≥ 94% | inhibition at 0.1 µM (PTK2B (FAK2)): 5% | inhibition at 0.1 µM (GSK3B (GSK3 beta)): 17% | inhibition at 0.1 µM (NEK1): -10% | inhibition at 0.1 µM (RET A883F): 22% | inhibition at 0.1 µM (NIM1K): 5% | inhibition at 0.1 µM (PDGFRA D842V): 13% | inhibition at 0.1 µM (FGFR2): 20% | inhibition at 0.1 µM (LYN A): 6% | inhibition at 0.1 µM (MINK1): 15% | inhibition at 0.1 µM (SRC N1): 9% | inhibition at 0.1 µM (PRKCB2 (PKC beta II)): 13% | inhibition at 0.1 µM (SRPK1): 7% | inhibition at 0.1 µM (FER): 13% | inhibition at 0.1 µM (FGFR1): 4% | inhibition at 0.1 µM (ROCK1): 5% | inhibition at 0.1 µM (CSNK2A2 (CK2 alpha 2)): 4% | inhibition at 0.1 µM (CSNK1A1L): 4% | inhibition at 0.1 µM (PDK1): 7% | inhibition at 0.1 µM (KIT T670I): 7% | inhibition at 0.1 µM (TXK): 7% | inhibition at 0.1 µM (JAK2): 49% | inhibition at 0.1 µM (JAK2 JH1 JH2 V617F): 39% | inhibition at 0.1 µM (MARK4): 8% | inhibition at 0.1 µM (CDC42 BPG (MRCKG)): 4% | inhibition at 0.1 µM (EPHB2): 20% | inhibition at 0.1 µM (EPHB1): 19% | inhibition at 0.1 µM (PRKCG (PKC gamma)): 7% | inhibition at 0.1 µM (HIPK4): 7% | inhibition at 0.1 µM (DAPK3 (ZIPK)): 6% | inhibition at 0.1 µM (CSNK2A1 (CK2 alpha 1)): 6% | inhibition at 0.1 µM (AMPK A1/B1/G1): 32% | inhibition at 0.1 µM (PHKG2): 2% | inhibition at 0.1 µM (CDK18/cyclin Y): 9% | inhibition at 0.1 µM (ERBB4 (HER4)): 2%
